# Reference: patent US20250346592A1 (Celgene Corporation, priority 2022, published 2025)
# Biological target: hPAD4 enzyme (Homo sapiens (Human), UniProt Q9UM07)
# Assay: RFMS2 assay (RapidFire mass spectrometry, TSTGGRQGSHH peptide substrate)
# Assay type: biochemical
# Conditions: 35 nM recombinant human PAD4, 500 μM TSTGGRQGSHH peptide, 30 minutes at room temperature; read-out: RFMS 2 IC50
# In short: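 Recombinant human PAD4 (35 nM) with 500 μM TSTGGRQGSHH peptide in HEPES pH 7.4, 200 mM NaCl, 2 mM CaCl2, 5 mM DTT, 1.2% DMSO, 30 min at room temperature; 3-fold compound series, top 20 μM. Quenched with formic acid; substrate and citrullinated product quantified by RapidFire MRM mass spectrometry for IC50.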
# Sequence of hPAD4 enzyme (Q9UM07 whole entry): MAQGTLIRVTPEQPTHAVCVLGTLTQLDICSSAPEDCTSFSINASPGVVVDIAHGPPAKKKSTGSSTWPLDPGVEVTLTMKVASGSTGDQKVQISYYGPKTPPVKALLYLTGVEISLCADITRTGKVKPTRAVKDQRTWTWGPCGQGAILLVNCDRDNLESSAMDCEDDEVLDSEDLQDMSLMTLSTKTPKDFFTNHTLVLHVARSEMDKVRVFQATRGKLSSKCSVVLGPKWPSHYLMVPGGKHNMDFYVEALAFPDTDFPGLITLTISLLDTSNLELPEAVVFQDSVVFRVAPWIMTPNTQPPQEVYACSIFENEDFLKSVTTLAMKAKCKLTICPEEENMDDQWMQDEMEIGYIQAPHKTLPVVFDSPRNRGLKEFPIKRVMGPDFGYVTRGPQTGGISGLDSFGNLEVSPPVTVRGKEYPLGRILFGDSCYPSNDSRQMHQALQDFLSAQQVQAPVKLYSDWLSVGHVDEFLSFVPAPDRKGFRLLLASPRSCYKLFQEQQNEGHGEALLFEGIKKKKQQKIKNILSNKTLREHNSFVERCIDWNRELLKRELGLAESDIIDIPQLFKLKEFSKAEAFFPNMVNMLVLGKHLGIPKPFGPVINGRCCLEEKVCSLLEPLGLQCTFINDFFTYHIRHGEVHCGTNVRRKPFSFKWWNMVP
row,Compound,IC50 [nM]
1,"Cn1c(-c2cc3cccc(OCCN4CCOCC4)c3n2CC2CC2)nc2cc3c(cc21)CCN(C[C@H](N)CF)C3=O [Example 158, (S)-6-(2-amino-3-fluoropropyl)-2-(1-(cyclopropyl-methyl)-7-(2-morpholinoethoxy)-1H-indol-2-yl)-1-methyl-1,6,7,8-tetrahydro-5H-imidazo[4,5-g] isoquinolin-5-one]",501 to 1000
2,"Cn1c(-c2cc3cccc(OC[C@@H]4CNCCO4)c3n2CC2CC2)nc2cc3c(cc21)CCN(C[C@H](N)CF)C3=O [Example 159, 6-((S)-2-amino-3-fluoropropyl)-2-(1-(cyclopropyl-methyl)-7-(((S)-morpholin-2-yl)methoxy)-1H-indol-2-yl)-1-methyl-1,6,7,8-tetrahydro-5H-imidazo[4,5-g] isoquinolin-5-one]",501 to 1000
3,"Cn1c(-c2cc3cccc(OC[C@H]4CNCCO4)c3n2CC2CC2)nc2cc3c(cc21)CCN(C[C@H](N)CF)C3=O [Example 160, 6-((S)-2-amino-3-fluoropropyl)-2-(1-(cyclopropylmethyl)-7-(((R)-morpholin-2-yl)methoxy)-1H-indol-2-yl)-1-methyl-1,6,7,8-tetrahydro-5H-imidazo[4,5-g]isoquinolin-5-one]",501 to 1000
4,"Cn1c(-c2cc3cccc(OCC4CCOCC4)c3n2CC2CC2)nc2cc3c(cc21)CCN(C[C@H](N)CF)C3=O [Example 161, (S)-6-(2-amino-3-fluoropropyl)-2-(1-(cyclopropylmethyl)-7-((tetrahydro-2H-pyran-4-yl)methoxy)-1H-indol-2-yl)-1-methyl-1,6,7,8-tetrahydro-5H-imidazo[4,5-g]isoquinolin-5-one]",501 to 1000
5,"Cc1nc(C)n(CCOc2cccc3cc(-c4nc5cc6c(cc5n4C)CCN(C[C@H](N)CF)C6=O)n(CC4CC4)c23)n1 [Example 162, (S)-6-(2-amino-3-fluoropropyl)-2-(1-(cyclopropyl-methyl)-7-(2-(3,5-dimethyl-1H-1,2,4-triazol-1-yl)ethoxy)-1H-indol-2-yl)-1-methyl-1,6,7,8-tetrahydro-5H-imidazo[4,5-g]isoquinolin-5-one]",101 to 500
6,"Cc1ncnn1CCOc1cccc2cc(-c3nc4cc5c(cc4n3C)CCN(C[C@H](N)CF)C5=O)n(CC3CC3)c12 [Example 163, (S)-6-(2-amino-3-fluoropropyl)-2-(1-(cyclopropylmethyl)-7-(2-(5-methyl-1H-1,2,4-triazol-1-yl)ethoxy)-1H-indol-2-yl)-1-methyl-1,6,7,8-tetrahydro-5H-imidazo[4,5-g]isoquinolin-5-one]",101 to 500
7,"Cc1ncn(CCOc2cccc3cc(-c4nc5cc6c(cc5n4C)CCN(C[C@H](N)CF)C6=O)n(CC4CC4)c23)n1 [Example 164, (S)-6-(2-amino-3-fluoropropyl)-2-(1-(cyclopropyl-methyl)-7-(2-(3-methyl-1H-1,2,4-triazol-1-yl)ethoxy)-1H-indol-2-yl)-1-methyl-1,6,7,8-tetrahydro-5H-imidazo[4,5-g]isoquinolin-5-one]",11 to 100
8,"Cn1c(-c2cc3cccc(OCc4cnco4)c3n2CC2CC2)nc2cc3c(cc21)CCN(C[C@H](N)CF)C3=O [Example 166, (S)-6-(2-amino-3-fluoropropyl)-2-(1-(cyclopropyl-methyl)-7-(oxazol-5-ylmethoxy)-1H-indol-2-yl)-1-methyl-1,6,7,8-tetrahydro-5H-imidazo[4,5-g] isoquinolin-5-one]",101 to 500
9,"Cn1c(-c2cc3cccc(OCc4ccon4)c3n2CC2CC2)nc2cc3c(cc21)CCN(C[C@H](N)CF)C3=O [Example 167, (S)-6-(2-amino-3-fluoropropyl)-2-(1-(cyclopropylmethyl)-7-(isoxazol-3-ylmethoxy)-1H-indol-2-yl)-1-methyl-1,6,7,8-tetrahydro-5H-imidazo[4,5-g]isoquinolin-5-one]",101 to 500
10,"Cn1c(-c2cc3cccc(OC[C@H]4CNC(=O)O4)c3n2CC2CC2)nc2cc3c(cc21)CCN(C[C@H](N)CF)C3=O [Example 168, (R)-5-(((2-(6-((S)-2-amino-3-fluoropropyl)-1-methyl-5-oxo-5,6,7,8-tetrahydro-1H-imidazo [4,5-g]isoquinolin-2-yl)-1-(cyclopropylmethyl)-1H-indol-7-yl)oxy)methyl)oxazolidin-2-one]",11 to 100
11,"Cn1c(-c2cc3cccc(OCCc4ccon4)c3n2CC2CC2)nc2cc3c(cc21)CCN(C[C@H](N)CF)C3=O [Example 170, (S)-6-(2-amino-3-fluoropropyl)-2-(1-(cyclopropyl-methyl)-7-(2-(isoxazol-3-yl)ethoxy)-1H-indol-2-yl)-1-methyl-1,6,7,8-tetrahydro-5H-imidazo[4,5-g] isoquinolin-5-one]",101 to 500
12,"Cn1c(-c2cc3cccc(OCc4ccnnc4)c3n2CC2CC2)nc2cc3c(cc21)CCN(C[C@H](N)CF)C3=O [Example 171, (S)-6-(2-amino-3-fluoropropyl)-2-(1-(cyclopropylmethyl)-7-(pyridazin-4-ylmethoxy)-1H-indol-2-yl)-1-methyl-1,6,7,8-tetrahydro-5H-imidazo [4,5-g]isoquinolin-5-one]",101 to 500
13,"Cn1c(-c2cc3cccc(OCC4COC(=O)N4)c3n2CC2CC2)nc2cc3c(cc21)CCN(C[C@H](N)CF)C3=O (stereo partly drawn) [Example 172, 4-(((2-(6-((S)-2-amino-3-fluoropropyl)-1-methyl-5-oxo-5,6,7,8-tetrahydro-1H-imidazo[4,5-g]isoquinolin-2-yl)-1-(cyclopropylmethyl)-1H-indol-7-yl)oxy)methyl)oxazolidin-2-one]",11 to 100
14,"Cn1c(-c2cc3cccc(OCCc4cc[nH]n4)c3n2CC2CC2)nc2cc3c(cc21)CCN(C[C@H](N)CF)C3=O [Example 173, (S)-2-(7-(2-(1H-pyrazol-3-yl)ethoxy)-1-(cyclopropylmethyl)-1H-indol-2-yl)-6-(2-amino-3-fluoropropyl)-1-methyl-1,6,7,8-tetrahydro-5H-imidazo [4,5-g]isoquinolin-5-one]",11 to 100
15,"Cn1c(-c2cc3cccc(OCc4ccno4)c3n2CC2CC2)nc2cc3c(cc21)CCN(C[C@H](N)CF)C3=O [Example 175, (S)-6-(2-amino-3-fluoropropyl)-2-(1-(cyclopropyl-methyl)-7-(isoxazol-5-ylmethoxy)-1H-indol-2-yl)-1-methyl-1,6,7,8-tetrahydro-5H-imidazo[4,5-g] isoquinolin-5-one]",101 to 500
16,"Cn1c(-c2cc3cccc(OCc4nnco4)c3n2CC2CC2)nc2cc3c(cc21)CCN(C[C@H](N)CF)C3=O [Example 176, (S)-2-(7-((1,3,4-oxadiazol-2-yl)methoxy)-1-(cyclopropylmethyl)-1H-indol-2-yl)-6-(2-amino-3-fluoropropyl)-1-methyl-1,6,7,8-tetrahydro-5H-imidazo[4,5-g]isoquinolin-5-one]",101 to 500
17,"Cc1nnc(COc2cccc3cc(-c4nc5cc6c(cc5n4C)CCN(C[C@H](N)CF)C6=O)n(CC4CC4)c23)o1 [Example 177, (S)-6-(2-amino-3-fluoropropyl)-2-(1-(cyclopropyl-methyl)-7-((5-methyl-1,3,4-oxadiazol-2-yl)methoxy)-1H-indol-2-yl)-1-methyl-1,6,7,8-tetrahydro-5H-imidazo[4,5-g]isoquinolin-5-one]",101 to 500
18,"Cn1c(-c2cc3cccc(OCCn4cccc4)c3n2CC2CC2)nc2cc3c(cc21)CCN(C[C@H](N)CF)C3=O [Example 180, (S)-2-(7-(2-(1H-pyrrol-1-yl)ethoxy)-1-(cyclopropyl-methyl)-1H-indol-2-yl)-6-(2-amino-3-fluoropropyl)-1-methyl-1,6,7,8-tetrahydro-5H-imidazo[4,5-g] isoquinolin-5-one]",101 to 500
